In data set [1] the target is T1, Tryptophan 5-hydroxylase 1 (Homo sapiens, UniProt P17752).
T1 sequence (P17752 whole entry): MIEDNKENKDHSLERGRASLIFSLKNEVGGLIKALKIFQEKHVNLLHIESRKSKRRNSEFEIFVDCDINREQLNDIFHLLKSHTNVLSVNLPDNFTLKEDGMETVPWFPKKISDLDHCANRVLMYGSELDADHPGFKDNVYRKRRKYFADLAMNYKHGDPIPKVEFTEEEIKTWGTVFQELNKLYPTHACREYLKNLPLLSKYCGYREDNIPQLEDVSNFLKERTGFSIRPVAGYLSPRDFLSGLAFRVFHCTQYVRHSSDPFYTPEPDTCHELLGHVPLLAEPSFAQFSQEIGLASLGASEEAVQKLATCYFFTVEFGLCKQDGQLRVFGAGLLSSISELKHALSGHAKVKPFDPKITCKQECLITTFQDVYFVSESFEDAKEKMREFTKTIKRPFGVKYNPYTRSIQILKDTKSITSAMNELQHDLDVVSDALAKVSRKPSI
Briefly: Inhibition of TPH1 ( unknown origin ).

In data set [2] the target is T2, Tryptophan 5-hydroxylase 1 (Homo sapiens) (UniProt P17752).
T2 sequence (whole entry): T1 sequence (P17752 whole entry)
Briefly: Inhibition of TPH1 ( unknown origin ) at 1 uM relative to control.

The nature of data set [3]: Stability in mouse liver microsomes assessed as compound remaining measured after 30 mins. It counts as ADME, Microsome. To be noted: read-out: Stability. A general note: Liver microsomes are a subcellular fraction often used to study metabolism.
The nature of data set [4]: Stability in human liver microsomes assessed as compound remaining measured after 30 mins. Format: ADME, Microsome. To be noted: read-out: Stability.
Data set [5] concerns the target T3, Tryptophan 5-hydroxylase 1 (Mus musculus) (UniProt P17532).
T3 sequence (whole entry): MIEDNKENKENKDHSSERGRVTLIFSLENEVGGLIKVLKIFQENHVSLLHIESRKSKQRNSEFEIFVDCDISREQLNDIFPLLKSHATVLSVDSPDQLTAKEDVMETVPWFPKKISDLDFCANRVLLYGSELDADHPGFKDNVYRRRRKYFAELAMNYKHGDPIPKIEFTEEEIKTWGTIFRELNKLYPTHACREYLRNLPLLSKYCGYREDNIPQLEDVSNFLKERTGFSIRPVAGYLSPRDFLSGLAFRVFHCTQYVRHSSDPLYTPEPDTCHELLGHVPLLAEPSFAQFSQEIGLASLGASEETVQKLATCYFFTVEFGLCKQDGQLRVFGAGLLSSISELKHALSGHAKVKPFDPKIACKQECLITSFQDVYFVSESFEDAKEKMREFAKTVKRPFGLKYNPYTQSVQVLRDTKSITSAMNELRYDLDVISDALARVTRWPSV
Briefly: Inhibition of TPH1 in mouse 3T3-L1 cells assessed as suppression of insulin-induced adipocyte differentiation by measuring reduction in lipid droplet accumulation at 1 to 2 uM measured on day 7 post-adipogenesis induction by oil red O staining based spectrophotometry. To be noted: dose 1-2 µM, time 7.0 day. It counts as cell-based.

The target in data set [6] is T3, Tryptophan 5-hydroxylase 1 (Mus musculus). Briefly: Inhibition of TPH1 in mouse 3T3-L1 cells assessed as suppression of insulin-induced adipocyte differentiation by measuring reduction in lipid droplet accumulation at 1 to 2 uM measured on day 7 post-adipogenesis induction by oil red O staining based phase-contrast light microscopy. Format: cell-based. To be noted: dose 1-2 µM, time 7.0 day.

Active and inactive are the calls of the source. No cut-off for these calls is given here.

Usually IC50 stands for the midpoint of a concentration-inhibition curve. A high value points to weaker potency. As usually defined, the inhibition is the drop in the measured response relative to a control, in per cent. Take `CCn1c(=O)[nH]c(=O)c2c1nc(Cc1cn3ccsc3n1)n2CC(=O)c1ccc(N)cc1`: the half-inhibitory concentration (IC50) in data set [1] came out at 0.168 µM. Besides, in data set [2], the inhibition is 87.8%. Also, the remaining at 0.5 h in data set [3] stood at 80.8%; in data set [4], 95.3%.

In turn, `CCn1c(=O)[nH]c(=O)c2c1nc(Cc1cn3ccsc3n1)n2CC(=O)c1ccc(OC(C)=O)cc1` registered an inhibition in data set [2] of 80.8%.

Consider `CCn1c(=O)[nH]c(=O)c2c1nc(Cc1cn3ccsc3n1)n2CC(=O)c1cccc(OC)c1`, for which the inhibition in data set [2] was 38.9%.

Take `CCn1c(=O)[nH]c(=O)c2c1nc(Cc1cn3ccsc3n1)n2CC(=O)c1ccc(CO)cc1`: in data set [1], half-maximal inhibition (IC50) required 0.277 µM. This molecule also registered an inhibition in data set [2] of 83%. For the same molecule, the remaining at 0.5 h in data set [3] worked out at 85.2%; in data set [4] it was 91.5%.

As to `CCn1c(=O)[nH]c(=O)c2c1nc(Cc1cn3ccsc3n1)n2CC(=O)c1ccc(O)cc1`, the inhibition result in data set [5] and in data set [6] was “Active” throughout. Besides, in data set [1], the IC50 came to 0.11 µM. This molecule also yielded an inhibition in data set [2] of 94.3%. Besides, the results for the remaining at 0.5 h in data set [3] and in data set [4] were 77.3% and 80.4%, respectively.

For `CCn1c(=O)[nH]c(=O)c2c1nc(Cc1cn3ccsc3n1)n2CC(=O)Nc1ccc(OC)cc1`, in data set [2], the inhibition turned out to be 4.1%.

In turn, `CCn1c(=O)[nH]c(=O)c2c1nc(Cc1cn3ccsc3n1)n2CC(=O)c1ccc(C(F)(F)F)cc1` displayed an inhibition in data set [2] of 47.5%.

`CCn1c(=O)[nH]c(=O)c2c1nc(Cc1cn3ccsc3n1)n2C/C(=N/O)c1ccc(OC)cc1` registered an inhibition in data set [2] of 25.5%.

In data set [2], `CCn1c(=O)[nH]c(=O)c2c1nc(Cn1cnc3ccccc31)n2Cc1ccccc1` had an inhibition of 0%.

Consider `CCn1c(=O)n(Cc2ccccc2)c(=O)c2c1nc(Cc1cn3ccsc3n1)n2Cc1ccccc1`, for which the inhibition in data set [2] was determined as 6.2%.

The molecule `CCn1c(=O)[nH]c(=O)c2[nH]c(Cc3cn4ccsc4n3)nc21` came in with an inhibition in data set [2] of 10.2%.

For `CCn1c(=O)[nH]c(=O)c2c1nc(Cc1ccccc1)n2Cc1ccccc1`, in data set [2], the inhibition is 0%.

In data set [2], `CCn1c(=O)[nH]c(=O)c2c1nc(Cn1ccnc1)n2Cc1ccccc1` had an inhibition of 0%.

Consider `CCn1c(=O)[nH]c(=O)c2c1nc(Cc1cn3ccsc3n1)n2CC(=O)c1ccc(Br)cc1`, for which the inhibition in data set [2] is 47.2%.

On to `CCn1c(=O)[nH]c(=O)c2c1nc(Cc1cn3ccsc3n1)n2CC(=O)c1ccc(F)cc1`, for which the inhibition in data set [2] amounted to 62.6%.

In data set [2], `CCn1c(=O)[nH]c(=O)c2c1nc(Cc1cn3ccsc3n1)n2CC(=O)c1ccc(N=[N+]=[N-])cc1` had an inhibition of 87.9%.

Molecule `CCn1c(=O)[nH]c(=O)c2c1nc(Cc1cn3ccsc3n1)n2CC(O)c1ccc(Cl)cc1` (centres undefined) showed an inhibition in data set [2] of 0%.

Take `CCn1c(=O)[nH]c(=O)c2c1nc(Cc1cn3ccsc3n1)n2CC(=O)c1ccc(Cl)cc1`: the inhibition in data set [2] came to 66%.

In turn, `CCn1c(=O)[nH]c(=O)c2c1nc(Cc1cn3ccsc3n1)n2CC(=O)c1ccccc1` had an inhibition in data set [2] of 39.4%.

Turning to `CCn1c(=O)[nH]c(=O)c2c1nc(Cc1cn3ccsc3n1)n2CC(=O)c1ccc(OC)cc1`, in data set [1], the midpoint of inhibition, the IC50, lay at 0.182 µM. In data set [2], this molecule had an inhibition of 91.4%. Further, the remaining at 0.5 h in data set [3] was 30%; in data set [4] it was 69%.

`CCn1c(=O)[nH]c(=O)c2c1nc(Cc1cn3ccsc3n1)n2CC(=O)c1ccc(-c2ccccc2)cc1` came in with an inhibition in data set [2] of 32.6%.

Molecule `CCn1c(=O)[nH]c(=O)c2c1nc(C)n2Cc1ccccc1` came in with an inhibition in data set [2] of 0%.

Turning to `CCn1c(=O)[nH]c(=O)c2c1nc(Cc1cn3ccsc3n1)n2Cc1ccccc1`, 1.16 µM corresponded to half-maximal inhibition in data set [1] (IC50). The molecule further yielded an inhibition in data set [2] of 48.6%.

Consider `CCn1c(=O)[nH]c(=O)c2c1nc(Cc1cn3ccsc3n1)n2CC(=O)c1ccccc1OC`, for which the inhibition in data set [2] is 0.3%.

For the origin of these results see ChEMBL document CHEMBL5365453, “Synthesis and biological evaluation of xanthine derivatives with phenacyl group as tryptophan hydroxylase 1 (TPH1) inhibitors for obesity and fatty liver disease” (Bioorg Med Chem Lett, 2023).
